Structures can show the parent of a compound that is named as a salt.
Key:
[1] = system: pain in the mid-back region; test: Acute pain, comparison with codeine, urinary calculi, subject three (Example 32); type: in vivo, human; conditions: for pain relief: subject three
Description: Methylsulfonylmethane was compared with codeine for the control of pain in subject three, a person who awakened in the early morning with excruciating pain in the mid-back region, so intense it was difficult to pin-point a specific region. […] Analgesic requirements were 1/2 grain codeine with aspirin every two hours. […] The intense pain returned. The subject was given 1.5 g of methylsulfonylmethane dissolved in 1/2 glass of warm water. At 0.5 hours after taking the methylsulfonylmethane, the pain had essentially disappeared. Methylsulfonylmethane (1.5 g/day) was continued until the afternoon of the third day, when X-ray confirmed that the calculi yet obstructed the ureter. Subject was switched again to codeine with aspirin (1/2 grain×2 hours). […] Methylsulfonylmethane was again administered (1.5 g×4 hours). On day 5 the calculi passed. Recovery was uneventful, requiring neither codeine, methylsulfonylmethane,nor a urinary tract antimicrobial.

arthritis = test: Canine arthritis and other sources of pain (Example 30); type: in vivo, dog; conditions: prior treatment
Description: In each case the methylsulfonylmethane was admixed with the animal's food just prior to feeding.
This animal, although owned by a veterinarian, had not responded to a variety of therapeutic regimens over the previous 12 months. Methylsulfonylmethane was given to this dog in its food at a level of 1.5 grams b.i.d. X 1 month.
It was mobile but walked with obvious difficulty and discomfort. The animals was refractory to both cortisone and phenylbutazone.
The animal had not responded to either cortisone nor phenylbutazone and its condition was deteriorating rapidly. Methylsulfonylmethane was included in its diet at 1 gm/day b.i.d. After one week, the dog appeared to be pain-free.

Trichomonas vaginalis = test: Treatment of Trichomonas vaginalis infection in subjects (Example 28(a)); type: in vivo, human; conditions: human, in vivo
Description: Both had prior courses of therapy for this disorder without adequate response. […]
One subject was later reinfected by their sexual partner but the reinfection was cleared employing a daily douche of 5% aqueous methylsulfonylmethane for one week.

platelet count = test: Low platelet count in lupus erythematosus (Example 22); type: in vivo, human; conditions: adult female, after prednisone therapy, before methylsulfonylmethane
Description: Methylsulfonylmethane administered orally raised the platelet count of an adult with lupus erythematosus from 84,000 (after prednisone therapy) to 200,000 over a 2-year period (1.5 gm/day in 3 doses).

[2] = system: scarification of the right cheek pouch; test: Wound healing of the cheek pouch in hamsters (Example 17); type: in vivo; conditions: 0.1 gm/kg methylsulfonylmethane alone or 100 mg ascorbic acid alone in feed; controls day 4 and 5
Description: Four sets of 5 hamsters were subject to scarification of the right cheek pouch, using standard methodology. One week prior to pouch injury, one set was started on a daily regimen of 0.1 gm/kg of methylsulfonylmethane in the diet of standard hamster feed, a second group was given 0.1 gm/kg of methylsulfonylmethane plus 100 mg of ascorbic acid in the same feed, a third group was given only 100 mg of ascorbic acid in the same feed, and the last group, fed only the feed, was held as control. Daily post-scarification examination was made to determine the rate of injury repair.

Structure (SMILES): CC(=O)Oc1ccccc1C(=O)O [Aspirin]
- pain relief [1]: ineffective

Structure (SMILES): COc1ccc2c3c1O[C@H]1[C@@H](O)C=C[C@H]4[C@@H](C2)N(C)CC[C@@]341 [codeine]
- mental confusion ([1]; day two, 1/2 grain codeine with aspirin every two hours): mental confusion
- pain relief [1]: acceptable relief

Structure (SMILES): C[C@]12CCC(=O)C=C1CC[C@@H]1[C@@H]2C(=O)C[C@@]2(C)[C@H]1CC[C@]2(O)C(=O)CO [cortisone, reference compound]
- response, Dog A (arthritis): not responsive
- response, Dog C (arthritis): refractory
- response, Dog D (arthritis): not responded

Structure (SMILES): Cc1ncc([N+](=O)[O-])n1CCO [metronidazole HCL, reference compound]
- stomach upset and nausea (Trichomonas vaginalis): side effect experienced by one subject

Structure (SMILES): CCCCC1C(=O)N(c2ccccc2)N(c2ccccc2)C1=O [phenylbutazone, reference compound]
- response, Dog A (arthritis): not responsive
- response, Dog C (arthritis): refractory
- response, Dog D (arthritis): not responded

Structure (SMILES): C[C@]12C=CC(=O)C=C1CC[C@@H]1[C@@H]2C(=O)C[C@@]2(C)[C@H]1CC[C@]2(O)C(=O)CO [prednisone, reference compound]
- platelet count (platelet count): 84,000

Structure (SMILES): O=C1O[C@H]([C@@H](O)CO)C(O)=C1O [vitamin C, ascorbic acid, reference compound]
- day on which the 36-hour combination healing result was matched [2]: three
